Several values for one entry are separate records, joined by “and”; a condition that tells them apart may be missing. Equal entries are not always repeated.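 Each compound was tested at five concentrations against cells in 96-well plates for 48 hours. Abbreviation: GI50, concentration required for 50% inhibition of growth. The concentration for full growth arrest is given as TGI.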
What was measured:
Test in all cases: NCI tumour cell line growth inhibition, 48 h
BT-549 breast = system: BT-549 breast
CAKI-1 renal = system: CAKI-1 renal
COLO 205 colon = system: COLO 205 colon
HCC-2998 colon = system: HCC-2998 colon
HCT-15 colon = system: HCT-15 colon
HL-60(TB) leukemia = system: HL-60(TB) leukemia
LOX IMVI melanoma = system: LOX IMVI melanoma
OVCAR-5 ovarian = system: OVCAR-5 ovarian
PC-3 prostate = system: PC-3 prostate
SK-MEL-28 melanoma = system: SK-MEL-28 melanoma

| SMILES | GI50 (BT-549 breast) | TGI (BT-549 breast) | GI50 (CAKI-1 renal) | TGI (CAKI-1 renal) | GI50 (COLO 205 colon) | TGI (COLO 205 colon) | GI50 (HCC-2998 colon) | TGI (HCC-2998 colon) | GI50 (HCT-15 colon) | TGI (HCT-15 colon) | GI50 (HL-60(TB) leukemia) | TGI (HL-60(TB) leukemia) | GI50 (LOX IMVI melanoma) | TGI (LOX IMVI melanoma) | GI50 (OVCAR-5 ovarian) | TGI (OVCAR-5 ovarian) | GI50 (PC-3 prostate) | TGI (PC-3 prostate) | GI50 (SK-MEL-28 melanoma) | TGI (SK-MEL-28 melanoma) |
| --- | --- | --- | --- | --- | --- | --- | --- | --- | --- | --- | --- | --- | --- | --- | --- | --- | --- | --- | --- | --- |
| CN1CCN(Cc2ccc(-c3cc4ncnc(Nc5ccc(OCc6cccc(F)c6)c(Cl)c5)c4s3)o2)CC1 | 4.41 µM | 8.91 µM | 3.33 µM | 7.98 µM | 4.8 µM | 8.66 µM | 4.24 µM | 7.99 µM | 2.92 µM | 6.39 µM | 4.62 µM | 9.34 µM | 3.66 µM | 8.07 µM | 3.91 µM | 7.8 µM | 4.13 µM | 8.17 µM | 4.08 µM | 7.61 µM |
| O=C(/C=C/c1ccco1)c1ccc(Nc2nc(Nc3ccc(F)cc3)nc(Nc3ccc(Cl)cc3)n2)cc1 | 2.23 µM | > 29.6 µM | 19.2 µM | > 54 µM | 12.1 µM | > 100 µM | 38.1 µM | > 100 µM | 9.47 µM | > 100 µM | > 42.3 µM | 98.8 µM | 16.1 µM | 39.3 µM | > 100 µM | > 100 µM | 1.54 µM | > 37.9 µM | > 40.2 µM | > 61.8 µM |
| COc1ccc(C(=O)Cn2c(C(=O)c3ccc(Cl)cc3)nc3ccccc32)cc1 | > 38.7 µM | > 100 µM | > 100 µM | > 100 µM | 37.5 µM | > 100 µM | 6.55 µM | > 100 µM | 3.88 µM | > 100 µM | 3.11 µM | > 53.3 µM | 17.5 µM | > 100 µM | > 66.3 µM | > 100 µM | 21.2 µM | > 100 µM | > 22.4 µM | > 100 µM |
| CCNC(=O)C[C@@H]1N=C(c2ccc(Cl)cc2)c2cc(OC)ccc2-n2c(C)nnc21 | > 28.1 µM | > 100 µM | 0.584 µM | > 100 µM | 0.994 µM | > 100 µM | 5.77 µM | > 100 µM | 3.77 µM | > 100 µM | 0.275 µM | 38.1 µM | 0.844 µM | > 100 µM | > 100 µM | > 100 µM | 3.15 µM | > 100 µM | 11.2 µM | > 100 µM |
| Cn1ccnc1C(=O)/C=C/c1ccc(CC(=O)Nc2ccc(Cl)cc2)cc1 | 3.53 µM | > 25 µM | 13.5 µM | > 25 µM | 9.44 µM | > 25 µM | 3.42 µM | > 25 µM | 0.999 µM | > 25 µM | 4.81 µM | > 25 µM | 1.07 µM | > 25 µM | 9.97 µM | > 25 µM | 1.37 µM | > 25 µM | > 25 µM | > 25 µM |
| S=CN1CCCCC1 | – | > 100 µM | – | > 100 µM | – | > 100 µM | – | > 100 µM | – | > 100 µM | – | > 100 µM | – | > 100 µM | – | > 100 µM | – | > 100 µM | – | > 100 µM |
| COc1cccc(-c2nn(-c3ccccc3)cc2-c2ccnc(NCCNS(=O)(=O)c3ccc(Cl)cc3)c2)c1 | 4.07 µM | > 100 µM | 5.61 µM | > 100 µM | 3.33 µM | 14.7 µM | 4.26 µM | > 100 µM | 3.86 µM | > 100 µM | 2.56 µM | 17.9 µM | 3.12 µM | > 100 µM | > 100 µM | > 100 µM | 2.44 µM | > 100 µM | 7.99 µM | > 100 µM |
| Cn1c(C(N)=O)cc2c1-c1nc(Nc3ccccc3)ncc1CCC2 | 3.29 µM | 27.8 µM | 2.11 µM | 15.9 µM | 4.77 µM | 17.7 µM | 10.3 µM | 33.3 µM | 3.4 µM | 28.6 µM | 6.77 µM | 49.7 µM | 4.86 µM | 24.8 µM | 2.54 µM | 25.1 µM | 5.19 µM | 41.6 µM | 8.74 µM | 61.1 µM |
| O=C(Nc1ccc(-c2nc3cc4ccccc4cc3[nH]2)cc1)c1cccc(Br)c1 | 12.6 µM | 28.5 µM | 27.5 µM | 74.8 µM | 8.87 µM | 40 µM | 31.1 µM | > 100 µM | 4.12 µM | 42.1 µM | 16.6 µM | 48.4 µM | 6.85 µM | 20.1 µM | 22.6 µM | 68.3 µM | 3.02 µM | 13.4 µM | 4.33 µM | 16.8 µM |
| C=C1C(=O)O[C@@H]2C[C@@H]1CC[C@]1(C)O[C@H]1CC[C@@]1(C)O[C@@H]1CC[C@@]2(C)O | 31.9 µM | 89.5 µM | 27.3 µM | 79.9 µM | 16.4 µM | 34.2 µM | 6.49 µM | 24.4 µM | 29.2 µM | > 100 µM | 15.2 µM | 46.5 µM | 28.7 µM | 80.8 µM | 29.2 µM | > 100 µM | 21.2 µM | 94.9 µM | 17.5 µM | 43.1 µM |
| O=C1/C(=C/c2cccc([N+](=O)[O-])c2)COc2ccc(O)c(O)c21 | 2.42 µM | 4.84 µM | 1.27 µM | 2.59 µM | 1.79 µM | 3.74 µM | 1.66 µM | 3.22 µM | 0.569 µM | 2.76 µM | 2.29 µM | 7.14 µM | 0.499 µM | 1.86 µM | 1.8 µM | 3.44 µM | 1.16 µM | 4.14 µM | 1.56 µM | 2.98 µM |
| CCC1=C(C)/C(=C/c2[nH]c(C)c(C(=O)CCCCC(=O)OC)c2C)N=C1c1ccc[nH]1 | 3.8 µM | > 41.3 µM | 20.6 µM | 45.8 µM | 12.6 µM | > 100 µM | 22.3 µM | 54.1 µM | 15.4 µM | 66.8 µM | 2.53 µM | 9.28 µM | 2.89 µM | > 32.3 µM | 21.1 µM | > 67.2 µM | 4.4 µM | 18 µM | 7.25 µM | 25.8 µM |
| Cc1[nH]c(=O)[nH]c(=O)c1N(CCF)CCCl | – | 769 µM | 137 µM | 634 µM and 711 µM | 337 µM | 930 µM and 805 µM | 220 µM | 606 µM and 668 µM and 751 µM | 182 µM and 310 µM and 186 µM | 503 µM and 486 µM and 1330 µM | 42.6 µM | 246 µM and 302 µM and 219 µM | 236 µM and 290 µM and 139 µM | 726 µM and 671 µM and 787 µM | 329 µM and 400 µM | 676 µM and 976 µM and 1200 µM | – | 954 µM | 256 µM and 494 µM | 589 µM and 1140 µM and 711 µM |
| COc1cc(/C=C(/C)[N+](=O)[O-])ccc1O | 2.34 µM and 3.08 µM | 4.67 µM and 8.82 µM | 2.17 µM and 1.38 µM | 6.07 µM and 3.26 µM | 1.99 µM and 1.45 µM | 3.99 µM and 2.85 µM | 1.77 µM and 1.68 µM | 3.28 µM and 3.08 µM | 2.34 µM and 2 µM | 7.4 µM and 6.21 µM | 2.75 µM | 7.01 µM | 1.59 µM and 1.58 µM | 3.27 µM and 3 µM | 3.47 µM and 2.66 µM | 10.1 µM and 7.96 µM | 2.68 µM and 2.74 µM | 7.27 µM and 6.86 µM | 1.81 µM and 1.87 µM | 3.87 µM and 3.88 µM |
| COC(=O)/C=C/c1cc(O)c2c(c1)C(C(=O)OC)C(c1ccc(O)c(O)c1)O2 (configuration not stated) | 0.127 µM and 0.103 µM | 39.8 µM and 5.39 µM | 0.644 µM and 0.393 µM | > 100 µM | 4.19 µM and 2.49 µM | 29 µM and 12.3 µM | 1.53 µM and 0.558 µM | 72.7 µM and > 46.9 µM | 0.0991 µM | 68.8 µM and > 100 µM | 0.0845 µM and 0.0298 µM | 0.164 µM and 0.106 µM | 0.17 µM and 0.0633 µM | 36 µM and > 67.1 µM | 4.28 µM and 2.95 µM | > 100 µM | 0.573 µM and 0.817 µM | 69 µM and 65.8 µM | – | 60.8 µM and > 100 µM |
| O=C(Nc1ccc(S(=O)(=O)Nc2nccs2)cc1)c1cccnc1Nc1cccc(Cl)c1 | 16 µM | 39.3 µM | 17 µM | 52.2 µM | 18 µM | 33.2 µM | 14.1 µM | 27.9 µM | 13.5 µM | 27.5 µM | 24.8 µM | 78.9 µM | 7.31 µM | 19.9 µM | 17.6 µM | 44.8 µM | 14.3 µM | 43 µM | 17.8 µM | 37.7 µM |
| C=C1C(=O)O[C@H]2[C@H]1CC/C(COC(=O)C(=O)c1c[nH]c3ccccc13)=C\CC[C@@]1(C)O[C@@H]21 | 2.08 µM | 5.22 µM | 2.97 µM | 13.5 µM | 1.8 µM | 3.91 µM | 1.95 µM | 4.02 µM | 1.75 µM | 4.02 µM | 1.86 µM | 4.67 µM | 1.48 µM | 3.04 µM | 2.35 µM | 6.42 µM | 2.13 µM | 4.37 µM | 2.02 µM | 4.23 µM |
| O=[N+]([O-])c1cnc(Sc2ccncn2)c([N+](=O)[O-])c1 | 15.2 µM | 28.9 µM | 1.6 µM | 3.07 µM | 1.98 µM | 3.58 µM | 18.4 µM | 36.2 µM | 2.78 µM | 11.2 µM | 23.1 µM | 62.9 µM | 3.1 µM | 10.6 µM | 16.3 µM | 31.7 µM | 15.1 µM | 29.2 µM | 15.6 µM | 29.7 µM |
